Measured values reported in patent US11553713B2, “Polyalcohol, carbohydrate, nucleobase and nucleotide compositions and uses thereof” (Chunbo Zhang, priority 2015, dated 2023).
Where “and” joins values, the source holds several entries; their conditions need not be identical. Equal values may be shown once.

Experiments:
mosquitoes = assay: Toxicity of rFOH by air exposure (container protected with a net to prevent ingestion); assay type: in vivo
Description: The CPDA contained 3.33 g sodium citrate, 0.376 g citric acid, 4.02 g glucose, 0.28 g sodium monobasic phosphate, and 0.346 g adenine in 1 liter of solution. (2R)-3-fluoropropane-1,2-diol (rFOH) was used as the active agent at a concentration of 1%.
100 mosquitoes were placed in a 6-liter cage with a container containing 1% rFOH in 10% sucrose with CPDA for 48 hours at room temperature (25-28° C.). The container was protected with a net to prevent ingestion of rFOH by the mosquitoes. […] The same result was obtained even when 10% of rFOH was used.

female mosquitoes = assay: Efficacy by ingestion: feeder test in 6-liter cage, death rate of female mosquitoes; assay type: in vivo; details: for death after 24 hours of feeding: fasted 24 hours
Text: Female mosquitoes were used in the experiment because only female mosquitoes bite humans and animals and transmit infectious diseases.
(§1) (2R)-3-fluoropropane-1,2-diol (rFOH) was used as the active agent at various concentrations. A sugar feeder containing 10% sucrose, which is a regular mosquito feeder in a laboratory setting, was used as a regular food source in free choice studies. A free choice study allows the pests to select which feeder to feed on when given two or more choices.
In a two-choice test, a 6-liter cage was supplied with two feeders, one contained 5% rFOH and 10% sucrose in CPDA and the other one contained 10% sucrose without any rFOH or CPDA. 100 female mosquitoes were placed in the cage having the two feeders such that the mosquitoes chose freely which feeder to feed on. After 24 hours of feeding in the cage, over 80% of mosquitoes were dead. […] When the concentration of rFOH was reduced to 1% or 0.15%, its effectiveness remained the same. Over 80% of mosquitoes were dead due to 24 hours of feeding with rFOH.
Subsequent to 24 hours of feeding, rFOH feeder was removed from the cage and a regular sugar feeder (10% sucrose) was provided. In the next day, 5-20% of residual death was observed, indicating a delayed death after rFOH ingestion.
In a further study, mosquitoes were fasted for 24 hours before feeding to ensure that all mosquitoes have the capacity for food intake. […] Thus, fasting is not a cause of mosquito death during a series of experiments.
The experiments determined that 0.1% rFOH was sufficient to achieve 50% death (LD50) under various conditions. In one study, 100 mosquitoes were caged in a 6-liter space and fasted for 24 hours. Subsequently, the mosquitoes were fed on two feeders giving their free choices for 0.1% rFOH containing 10% sucrose in CPDA or 10% sucrose without rFOH for 24 hours, resulting in 43% death. In a parallel study in which the cage was supplied with a single feeder, the 0.1% rFOH feeder containing 10% sucrose in CPDA, which caused 44% of death after 24 hours of feeding.
Similar experiments as disclosed above were performed with various rFOH concentrations under various conditions. The rFOH composition contained 10% sugar in CPDA solution unless specified otherwise.
Similar experiments as disclosed above were performed on female mosquitoes to determine LD50. The rFOH composition contained 10% sugar in CPDA solution unless specified otherwise.
Similar experiments as disclosed above were performed on female mosquitoes using different active agents at various concentrations. The active agent composition contained 10% sugar in CPDA solution unless specified otherwise.

male mosquitoes = assay: Efficacy by ingestion: feeder test, death rate of male mosquitoes; assay type: in vivo; details: 0.1% rFOH, 10% sugar in CPDA, 24 hrs, 24 hrs fasting, sugar feeder provided for free choice
Description: as §1
Similar experiments as disclosed above were performed on female mosquitoes and male mosquitoes. The rFOH composition contained 10% sugar in CPDA solution unless specified otherwise.

[1] = tested on: Escherishia coli DH5α transformed with a pcDNA3 plasmid (DH5P); assay: MIC test, broth microdilution (CLSI M07-A9); assay type: cell-based; details: Tryptic soy broth, 37° C. for 24 hrs
Description: (§2) The effects of pesticides disclosed herein on various bacteria were tested by determining the minimal inhibitory concentration (MIC) of the pesticides. MIC of an antimicrobial agent is the lowest concentration of the antimicrobial agent that inhibits a given bacterial isolate from multiplying and producing visible growth in the test system. The MIC of rFOH and BrOH was determined in the laboratory by incubating a known quantity of bacteria with a series of dilutions of the active agents and comparing their effects with those of known antimicrobial agents. Table 6 lists the representative bacterial strains and the conditions in MIC tests. Antimicrobial tests of the active agents were conducted according to “Methods for Dilution Antimicrobial Susceptibility Tests for Bacteria That Grow Aerobically” by Clinical and Laboratory Standards Institute (CLSI) (CLSI document M07-A9, 2012). In the study, methicillin/oxacillin resistant Staphylococcus aureus (MRSA) strain (ATCC 43300) was routinely under screening with 4 ug/ml oxacillin. Escherishia coli DH5α was a nonpathogenic laboratory strain. […] When the DH5α/plasmid (DH5P) colony was used, the colony was maintained in the presence of 100 ug/ml ampicillin.
(§3) MIC tests were conducted in 96 well microtiter plates with a total volume of 150 ul broth in each well. The directly colony suspension method (CLSI document M07-A9, 2012) was applied to obtain MIC for antimicrobial tests of the active agents. After colonies were freshly incubated overnight, colonies were suspended in sterile water to adjust the inoculum to a turbidity equivalent to a 0.5 McFarland standard (corresponding to approximately 1.5×10^8 CFU/ml). Within 10 minutes, the inoculum was adjusted by dilution in broth to reach a final concentration of 5×10^5 CFU/ml. A series of various concentrations of the active agents were applied to determine the MIC. In the same microtiter plate, an internal standard formulated by a concentration series of standard antibiotic agent was incubated in parallels to allow for back-to-back comparison.

Escherishia coli DH5α = assay: MIC test, broth microdilution (CLSI M07-A9); assay type: cell-based; details: Tryptic soy broth, 37° C. for 24 hrs
Description: as §2, §3

[2] = tested on: Methicillin/oxacillin resistant Staphylococcus aureus (MRSA) strain (ATCC 43300); assay: MIC test, broth microdilution (CLSI M07-A9); assay type: cell-based; details: Mueller Hinton broth with 2% NaCl and 50 ug/ml CaCl2, 35° C. for 24 hrs
Description: as §2, §3

## OC[C@@H](O)CF [rFOH, (2R)-3-fluoropropane-1,2-diol]
mosquitoes; 1% rFOH in 10% sucrose with CPDA, container protected with net, 48 hours, room temperature (25-28° C.)
  death of mosquito by air exposure: No death
mosquitoes; concentration 100-fold as high as the LD50, not ingested
  death of pests when exposed but not ingested: no death
Female mosquitoes; 0.1% rFOH, 5% sugar, CPDA, 5% maltose, 24 hrs, 24 hrs fasting, sugar feeder provided for free choice
  Death Rate: 54%
Female mosquitoes; 0.1% rFOH, 5% sugar, CPDA, 25% Maple Syrup, 24 hrs, 24 hrs fasting, sugar feeder provided for free choice
  Death Rate: 26-47%
Female mosquitoes; 0.1% rFOH, 5% sugar, CPDA, 50% corn syrup, 24 hrs, 24 hrs fasting, sugar feeder provided for free choice
  Death Rate: 22-30%
Female mosquitoes; 0.1% rFOH, 10% sucrose in CPDA, free choice with 10% sucrose feeder
  death after 24 hours of feeding: 43%
Female mosquitoes; 0.1% rFOH, 10% sucrose in CPDA, single feeder
  death after 24 hours of feeding: 44%
Female mosquitoes; 0.1% rFOH, 10% sugar in CPDA, 24 hrs, 24 hrs fasting, sugar feeder not provided
  Death Rate: 65%
Female mosquitoes; 0.1% rFOH, 10% sugar in CPDA, 24 hrs, 24 hrs fasting, sugar plus CPDA feeder provided for free choice
  Death Rate: 59-80%
Female mosquitoes; 0.1% rFOH, 10% sugar in CPDA, 24 hrs, not fasted, sugar feeder provided for free choice
  Death Rate: 64%
Female mosquitoes; 0.1% rFOH, 10% sugar, no CPDA, 24 hrs, 24 hrs fasting, sugar feeder provided for free choice
  Death Rate: 44-50%
Female mosquitoes; 0.1% rFOH, rFOH feeder replaced by sugar feeder, residual death within next 24 hours included
  total death rate incl. residual death: 46-64%
Female mosquitoes; 0.15% rFOH
  death of female mosquitoes after 24 hours of feeding: more than 90%
Female mosquitoes; 0.15% rFOH, 10% sucrose in CPDA, 24 hours feeding, two-choice with 10% sucrose feeder
  Death Rate: over 80%
Female mosquitoes; 0.15% rFOH, 10% sugar in CPDA, 24 hrs, 24 hrs fasting, sugar feeder not provided
  Death Rate: 95-98%
Female mosquitoes; 0.15% rFOH, 10% sugar in CPDA, 24 hrs, 24 hrs fasting, sugar feeder provided for free choice
  Death Rate: 55-80%
Female mosquitoes; 0.15% rFOH, female mosquitoes
  time to death after ingestion: 2 to 5 h
Female mosquitoes; 1% rFOH, 10% sucrose in CPDA, 24 hours feeding, two-choice with 10% sucrose feeder
  Death Rate: over 80%
Female mosquitoes; 5% rFOH, 10% sugar in CPDA, 24 hrs, not fasted, sugar feeder not provided
  Death Rate: 94%
Female mosquitoes; after 24 hours feeding rFOH feeder removed, regular sugar feeder (10% sucrose) provided
  residual death in the next day: 5-20%
Female mosquitoes; assuming a female mosquito ingests as much as 0.6 μl of the composition, >90% death
  rFOH per mosquito corresponding to 0.15% rFOH: 0.001 mg
Male mosquitoes
  Death Rate: 95%
[1]
  MIC: 0.4%
Escherishia coli DH5α
  MIC: 0.4% and 0.43%
[2]
  MIC: 0.4%
